Measurements: PubChem BioAssay (NCI)
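Method: 48-hour compound exposure of cells in 96-well plates, five concentrations, linear interpolation of endpoints. TGI: total growth inhibition.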

System: SF-295 CNS
Test: DTP human tumour cell line panel, 48 h

Row | Compound | TGI [µM]
1 | C(/C=C/Nc1ccc(Oc2ccccc2)cc1)=Nc1ccc(Oc2ccccc2)cc1 | 29.4
2 | O=C(/C=C/c1ccc2ccccc2c1)NCc1ccc(C(=O)NCCc2ccccc2)cc1 | > 100
3 | CC(C)OC(=O)/C=C/C(=O)O/C=C/[N+](=O)[O-] | > 100
4 | CC1(C)OC(=O)N(c2ccccc2)C12C=Cc1cc([N+](=O)[O-])ccc1O2 (stereo not drawn) | > 100
5 | COC1=C(OC)C(=O)C(Cc2c(C)nc3sccn23)=C(C)C1=O | 30
6 | CCOc1ncn(-c2ccc(NC(=S)NC3OC(CO)C(O)C(O)C3O)cc2)n1 (stereo not drawn) | > 100
7 | CC1(C)/C(=C/N=O)N(O)C(C)(C)N1O | > 100
8 | COC(=O)c1cc2c(cc1Cl)Sc1nnc(Nc3ccc(C)cc3)n1S2(=O)=O | 30.4
9 | N#Cc1c(-c2ccccc2)[nH]c2ccc(Cl)cc2c1=O | 66.2
10 | N#C[C@@H](c1ccccn1)c1ncccc1[N+](=O)[O-] | > 100
11 | N#Cc1[nH]c(=O)n(-c2ccccc2)c1N | 3.72
12 | COC(=O)C1=CS/C(=C2\S[C@@H]3[C@H](S2)[C@H]2C=C[C@@H]3C2)S1 | 17.9
13 | CC(=O)Oc1ccc2cc(-c3ccccc3OC(C)=O)c(=O)oc2c1 | > 100
14 | O=[N+]([O-])c1ccc(S(=O)(=O)n2c3ccc(Br)cc3c3nc4ccccc4nc32)cc1 | > 100
15 | CC(=O)[C@@H](C)C(=O)N1C(=O)OC[C@@]12[C@@H]1CC[C@@H](C1)C2(C)C | > 100
16 | COc1cc(-c2nc3ccccn3c2/N=C/c2cc(Br)cc(Br)c2O)ccc1O | 50
17 | COC(=O)Nc1nc2ccc(S(=O)(=O)SC)cc2[nH]1 | > 100
18 | CCN(CC)CCSc1c2cc(OC)ccc2nc2ccc(OC)cc12 | > 57.5
19 | CO/C=C(/C(=O)OC)c1ccccc1COc1cccc(C(F)(F)F)c1 | > 100
20 | CCOC(=O)c1ccc(NCc2ccc3oc(=O)c(-c4ccccc4)nc3c2)cc1 | > 100
21 | C1=Cc2cc3c(c4nccc(c24)N1)OCO3 | 22.3
22 | CC(C)=CCC(O)[C@](C)(O)[C@H]1[C@H](O)C[C@@]2(C)[C@@H]3CCc4cc(O)c(OC5OC(CO)C(O)C(O)C5O)cc4C3(C)C(=O)C[C@]12C (stereo partly drawn) | > 100
23 | C[N+]1(C)CCc2cc(O)c(O)cc2C1Cc1ccc(O)c(O)c1 (stereo not drawn) | > 100
24 | O=C1NC2O[C@H](CNC(=O)c3cc(Br)c[nH]3)CC2(O)N1 (mixture of isomers) | > 100

System: UO-31 renal
Test: DTP human tumour cell line panel, 48 h

Row | Compound | TGI [µM]
25 | C(/C=C/Nc1ccc(Oc2ccccc2)cc1)=Nc1ccc(Oc2ccccc2)cc1 | 35
26 | O=C(/C=C/c1ccc2ccccc2c1)NCc1ccc(C(=O)NCCc2ccccc2)cc1 | > 100
27 | Nc1nc(-[n+]2ccc(-c3ccncc3)cc2)nc(Cl)c1Cl | > 100
28 | CC(C)OC(=O)/C=C/C(=O)O/C=C/[N+](=O)[O-] | > 100
29 | C[C@@H](c1ccccc1)n1c(N)c(C#N)c2ccc([N+](=O)[O-])cc2c1=O | 24.1
30 | CC1(C)OC(=O)N(c2ccccc2)C12C=Cc1cc([N+](=O)[O-])ccc1O2 (stereo not drawn) | > 100
31 | COC1=C(OC)C(=O)C(Cc2c(C)nc3sccn23)=C(C)C1=O | 29.1
32 | CCOc1ncn(-c2ccc(NC(=S)NC3OC(CO)C(O)C(O)C3O)cc2)n1 (stereo not drawn) | > 100
33 | CC1(C)/C(=C/N=O)N(O)C(C)(C)N1O | > 100
34 | COC(=O)c1cc2c(cc1Cl)Sc1nnc(Nc3ccc(C)cc3)n1S2(=O)=O | 23.6
35 | N#Cc1c(-c2ccccc2)[nH]c2ccc(Cl)cc2c1=O | 44
36 | N#C[C@@H](c1ccccn1)c1ncccc1[N+](=O)[O-] | > 100
37 | N#Cc1[nH]c(=O)n(-c2ccccc2)c1N | > 10
38 | COC(=O)C1=CS/C(=C2\S[C@@H]3[C@H](S2)[C@H]2C=C[C@@H]3C2)S1 | > 100
39 | CC(=O)Oc1ccc2cc(-c3ccccc3OC(C)=O)c(=O)oc2c1 | 28.4
40 | O=[N+]([O-])c1ccc(S(=O)(=O)n2c3ccc(Br)cc3c3nc4ccccc4nc32)cc1 | > 100
41 | CC(=O)[C@@H](C)C(=O)N1C(=O)OC[C@@]12[C@@H]1CC[C@@H](C1)C2(C)C | > 100
42 | COc1cc(-c2nc3ccccn3c2/N=C/c2cc(Br)cc(Br)c2O)ccc1O | 30.6
43 | CO/C=C(/C(=O)OC)c1ccccc1COc1cccc(C(F)(F)F)c1 | 77
44 | CCOC(=O)c1ccc(NCc2ccc3oc(=O)c(-c4ccccc4)nc3c2)cc1 | > 100
45 | C1=Cc2cc3c(c4nccc(c24)N1)OCO3 | > 48.8
46 | CC(C)=CCC(O)[C@](C)(O)[C@H]1[C@H](O)C[C@@]2(C)[C@@H]3CCc4cc(O)c(OC5OC(CO)C(O)C(O)C5O)cc4C3(C)C(=O)C[C@]12C (stereo partly drawn) | > 100
47 | C[N+]1(C)CCc2cc(O)c(O)cc2C1Cc1ccc(O)c(O)c1 (stereo not drawn) | > 100
48 | O=C1NC2O[C@H](CNC(=O)c3cc(Br)c[nH]3)CC2(O)N1 (mixture of isomers) | > 100

System: HCT-15 colon
Test: DTP human tumour cell line panel, 48 h

Row | Compound | TGI [µM]
49 | C(/C=C/Nc1ccc(Oc2ccccc2)cc1)=Nc1ccc(Oc2ccccc2)cc1 | 33.6
50 | O=C(/C=C/c1ccc2ccccc2c1)NCc1ccc(C(=O)NCCc2ccccc2)cc1 | > 100
51 | Nc1nc(-[n+]2ccc(-c3ccncc3)cc2)nc(Cl)c1Cl | > 100
52 | CC(C)OC(=O)/C=C/C(=O)O/C=C/[N+](=O)[O-] | > 100
53 | C[C@@H](c1ccccc1)n1c(N)c(C#N)c2ccc([N+](=O)[O-])cc2c1=O | 28.2
54 | CC1(C)OC(=O)N(c2ccccc2)C12C=Cc1cc([N+](=O)[O-])ccc1O2 (stereo not drawn) | > 100
55 | COC1=C(OC)C(=O)C(Cc2c(C)nc3sccn23)=C(C)C1=O | 41
56 | CCOc1ncn(-c2ccc(NC(=S)NC3OC(CO)C(O)C(O)C3O)cc2)n1 (stereo not drawn) | > 100
57 | CC1(C)/C(=C/N=O)N(O)C(C)(C)N1O | > 100
58 | COC(=O)c1cc2c(cc1Cl)Sc1nnc(Nc3ccc(C)cc3)n1S2(=O)=O | 12.5
59 | N#Cc1c(-c2ccccc2)[nH]c2ccc(Cl)cc2c1=O | > 100
60 | N#C[C@@H](c1ccccn1)c1ncccc1[N+](=O)[O-] | > 100
61 | N#Cc1[nH]c(=O)n(-c2ccccc2)c1N | > 10
62 | COC(=O)C1=CS/C(=C2\S[C@@H]3[C@H](S2)[C@H]2C=C[C@@H]3C2)S1 | > 100
63 | CC(=O)Oc1ccc2cc(-c3ccccc3OC(C)=O)c(=O)oc2c1 | > 100
64 | O=[N+]([O-])c1ccc(S(=O)(=O)n2c3ccc(Br)cc3c3nc4ccccc4nc32)cc1 | > 100
65 | CC(=O)[C@@H](C)C(=O)N1C(=O)OC[C@@]12[C@@H]1CC[C@@H](C1)C2(C)C | > 100
66 | COc1cc(-c2nc3ccccn3c2/N=C/c2cc(Br)cc(Br)c2O)ccc1O | 44.8
67 | COC(=O)Nc1nc2ccc(S(=O)(=O)SC)cc2[nH]1 | 19.4
68 | CCN(CC)CCSc1c2cc(OC)ccc2nc2ccc(OC)cc12 | > 100
69 | CO/C=C(/C(=O)OC)c1ccccc1COc1cccc(C(F)(F)F)c1 | > 100
70 | CCOC(=O)c1ccc(NCc2ccc3oc(=O)c(-c4ccccc4)nc3c2)cc1 | > 100
71 | C1=Cc2cc3c(c4nccc(c24)N1)OCO3 | > 76.7
72 | CC(C)=CCC(O)[C@](C)(O)[C@H]1[C@H](O)C[C@@]2(C)[C@@H]3CCc4cc(O)c(OC5OC(CO)C(O)C(O)C5O)cc4C3(C)C(=O)C[C@]12C (stereo partly drawn) | > 100
73 | C[N+]1(C)CCc2cc(O)c(O)cc2C1Cc1ccc(O)c(O)c1 (stereo not drawn) | > 100
74 | O=C1NC2O[C@H](CNC(=O)c3cc(Br)c[nH]3)CC2(O)N1 (mixture of isomers) | > 100

System: RPMI-8226 leukemia
Test: DTP human tumour cell line panel, 48 h

Row | Compound | TGI [µM]
75 | C(/C=C/Nc1ccc(Oc2ccccc2)cc1)=Nc1ccc(Oc2ccccc2)cc1 | 54.1
76 | O=C(/C=C/c1ccc2ccccc2c1)NCc1ccc(C(=O)NCCc2ccccc2)cc1 | > 100
77 | Nc1nc(-[n+]2ccc(-c3ccncc3)cc2)nc(Cl)c1Cl | > 100
78 | CC(C)OC(=O)/C=C/C(=O)O/C=C/[N+](=O)[O-] | 33.9
79 | CC1(C)OC(=O)N(c2ccccc2)C12C=Cc1cc([N+](=O)[O-])ccc1O2 (stereo not drawn) | > 100
80 | COC1=C(OC)C(=O)C(Cc2c(C)nc3sccn23)=C(C)C1=O | 24.7
81 | CCOc1ncn(-c2ccc(NC(=S)NC3OC(CO)C(O)C(O)C3O)cc2)n1 (stereo not drawn) | > 100
82 | CC1(C)/C(=C/N=O)N(O)C(C)(C)N1O | > 100
83 | COC(=O)c1cc2c(cc1Cl)Sc1nnc(Nc3ccc(C)cc3)n1S2(=O)=O | 5.44
84 | N#Cc1c(-c2ccccc2)[nH]c2ccc(Cl)cc2c1=O | > 100
85 | N#C[C@@H](c1ccccn1)c1ncccc1[N+](=O)[O-] | > 100
86 | N#Cc1[nH]c(=O)n(-c2ccccc2)c1N | > 10
87 | COC(=O)C1=CS/C(=C2\S[C@@H]3[C@H](S2)[C@H]2C=C[C@@H]3C2)S1 | > 100
88 | CC(=O)Oc1ccc2cc(-c3ccccc3OC(C)=O)c(=O)oc2c1 | > 100
89 | O=[N+]([O-])c1ccc(S(=O)(=O)n2c3ccc(Br)cc3c3nc4ccccc4nc32)cc1 | > 100
90 | CC(=O)[C@@H](C)C(=O)N1C(=O)OC[C@@]12[C@@H]1CC[C@@H](C1)C2(C)C | > 100
91 | COc1cc(-c2nc3ccccn3c2/N=C/c2cc(Br)cc(Br)c2O)ccc1O | > 100
92 | COC(=O)Nc1nc2ccc(S(=O)(=O)SC)cc2[nH]1 | > 100
93 | CCN(CC)CCSc1c2cc(OC)ccc2nc2ccc(OC)cc12 | 6.96
94 | CO/C=C(/C(=O)OC)c1ccccc1COc1cccc(C(F)(F)F)c1 | 7.31
95 | C1=Cc2cc3c(c4nccc(c24)N1)OCO3 | > 65.9
96 | C[N+]1(C)CCc2cc(O)c(O)cc2C1Cc1ccc(O)c(O)c1 (stereo not drawn) | 65.9
97 | O=C1NC2O[C@H](CNC(=O)c3cc(Br)c[nH]3)CC2(O)N1 (mixture of isomers) | > 100

System: A549 NSCLC
Test: DTP human tumour cell line panel, 48 h

Row | Compound | TGI [µM]
98 | C(/C=C/Nc1ccc(Oc2ccccc2)cc1)=Nc1ccc(Oc2ccccc2)cc1 | 42
99 | O=C(/C=C/c1ccc2ccccc2c1)NCc1ccc(C(=O)NCCc2ccccc2)cc1 | > 100
100 | Nc1nc(-[n+]2ccc(-c3ccncc3)cc2)nc(Cl)c1Cl | > 100
101 | CC(C)OC(=O)/C=C/C(=O)O/C=C/[N+](=O)[O-] | > 100
102 | C[C@@H](c1ccccc1)n1c(N)c(C#N)c2ccc([N+](=O)[O-])cc2c1=O | > 100
103 | CC1(C)OC(=O)N(c2ccccc2)C12C=Cc1cc([N+](=O)[O-])ccc1O2 (stereo not drawn) | > 100
104 | COC1=C(OC)C(=O)C(Cc2c(C)nc3sccn23)=C(C)C1=O | 40.3
105 | CCOc1ncn(-c2ccc(NC(=S)NC3OC(CO)C(O)C(O)C3O)cc2)n1 (stereo not drawn) | > 100
106 | CC1(C)/C(=C/N=O)N(O)C(C)(C)N1O | > 100
107 | COC(=O)c1cc2c(cc1Cl)Sc1nnc(Nc3ccc(C)cc3)n1S2(=O)=O | 35.8
108 | N#Cc1c(-c2ccccc2)[nH]c2ccc(Cl)cc2c1=O | > 100
109 | N#C[C@@H](c1ccccn1)c1ncccc1[N+](=O)[O-] | > 100
110 | N#Cc1[nH]c(=O)n(-c2ccccc2)c1N | > 10
111 | COC(=O)C1=CS/C(=C2\S[C@@H]3[C@H](S2)[C@H]2C=C[C@@H]3C2)S1 | > 100
112 | CC(=O)Oc1ccc2cc(-c3ccccc3OC(C)=O)c(=O)oc2c1 | > 100
113 | O=[N+]([O-])c1ccc(S(=O)(=O)n2c3ccc(Br)cc3c3nc4ccccc4nc32)cc1 | > 100
